Experimental data as given in US9018411B2, “Bis-acylated hydroxylamine derivatives” (Cardioxyl Pharmaceuticals, Inc., priority 2009, dated 2015).

Tests used:
[1] = Decomposition of compound in PBS buffer, pH 7.4 determined by HPLC; assay type: physicochemical; conditions: 37° C. under argon; for half-life: read-out: approximate half-life (in parentheses in Decomp. Time column)
Procedure: (§1) The ability of compounds to donate HNO is assessed. N2O results are reported relative to Angeli's salt. All decompositions are carried out at 37° C. under argon.

[2] = HNO production via N2O quantification (GC headspace analysis); assay type: physicochemical; conditions: 37° C. under argon, N2O relative to Angeli's salt; for % N2O DI: compound incubated in DI water; for % N2O pH 7.4: compound incubated in PBS buffer; for % N2O pH 10.3: compound incubated in pH 10.3 carbonate buffer
Procedure: (§2) Nitrous oxide is produced via the dimerization and dehydration of HNO, and is the most common marker for HNO production (Fukuto, J. M. et al., Chem. Res. Toxicol. 2005, 18, 790-801).
as §1

[3] = tested on: esterase; assay: HNO production via N2O quantification in PBS buffer, pH 7.4 with added esterase; assay type: in vitro ADME; conditions: pH 7.4 with 2-4 mg added esterase, 37° C. under argon, N2O relative to Angeli's salt
Procedure: as §2, §1

Row | SMILES | Decomp. Time (time required for complete decomposition) [1] | % N2O DI [2] | % N2O pH 7.4 [2] | half-life [1] | % N2O pH 10.3 [2] | % N2O esterase [3]
1 | O=C(ON(Cl)C(=O)c1ccccc1)c1ccccc1 [Compound 1, N-chloro-N-benzoyloxy-benzamide] | <3 h | 29% | 1% |  |  | 
2 | O=C(ON(Cl)C(=O)c1ccc(Cl)cc1)c1ccc(Cl)cc1 [Compound 2, N-chloro-N-(4-chlorobenzoyloxy)-4-chlorobenzamide] | <3 h | 32% | 1% |  |  | 
3 | CC(=O)ON(Cl)C(=O)c1ccccc1 [Compound 6, N-chloro-N-acetoxy-benzamide] | <3 h |  | 2% |  |  | 
4 | O=C(ON(Cl)C(=O)c1ccccc1)C(Cl)Cl [Compound 7, N-chloro-N-dichloroacetyloxy- benzamide] | <3 h |  | 7% |  |  | 
5 | O=C(c1ccccc1)N(Cl)OC(=O)C(F)(F)F [Compound 8, N-chloro-N-(2,2,2-trifluoroacetoxy)benzamide] | <3 h |  | 2% |  |  | 
6 | CC(=O)ON(Cl)C(C)=O [Compound 9, N-chloro-N-acetyloxy-acetamide] | <3 h | 80% | 15% |  |  | 
7 | CC(=O)ON(Cl)C(=O)OC(C)(C)C [Compound 10, N-chloro-N-acetyloxy-tert-butyl- carbamate] | <3 h | 98% | 39% |  |  | 
8 | CCOC(=O)ON(Cl)C(=O)OCC [Compound 11, N-chloro-ethyl-carbonoxy-ethyl- carbamate] | <3 h | 31% | 12% |  |  | 
9 | CC(C)(C)C(=O)ON(Cl)C(=O)C(C)(C)C [Compound 12, N-chloro-N-(trimethylacetyloxy)- trimethylacetamide] | <3 h | 37% | 1% |  |  | 
10 | CC(C)(C)OC(=O)N(Cl)OC(=O)c1ccc([N+](=O)[O-])cc1 [Compound 13] | <3 h | 9% |  |  |  | 
11 | CC(=O)ON(Cl)C(=O)C(C)(C)C [Compound 14, N-chloro-N-(acetyloxy)- trimethylacetamide] | <3 h | 48% | 6% |  |  | 
12 | CC(=O)ON(Br)C(C)=O [Compound 15, N-bromo-N-acetyloxy-acetamide] | <3 h |  | 7% |  |  | 
13 | CC(=O)ON(C(C)=O)S(=O)(=O)c1ccc(Cl)cc1 [Compound 18, N-(4-chlorobenzenesulfonyl)-N-acetyloxy-acetamide] | <3 h |  | 4% |  |  | 
14 | CC(=O)ON(C(C)=O)S(=O)(=O)c1ccccc1Br [Compound 19, N-(2-bromobenzenesulfonyl)-N-acetyloxy-acetamide] | < 2 h |  | 35% | ~20 min |  | 
15 | CC(=O)ON(C(C)=O)S(=O)(=O)c1ccccc1Cl [Compound 20, N-(2-chlorobenzenesulfonyl)-N-acetyloxy-acetamide] | <3 h |  | 23% |  |  | 
16 | CC(=O)ON(C(C)=O)S(=O)(=O)c1c(F)cc(F)cc1Br [Compound 21, N-(2-bromo-4,6-difluoro-benzenesulfonyl)-N-acetyloxy-acetamide] | <3 h |  | 39% |  |  | 

Row | SMILES | Decomp. Time (time required for complete decomposition) [1] | % N2O DI [2] | % N2O pH 7.4 [2] | half-life [1] | % N2O pH 10.3 [2] | % N2O esterase [3]
17 | CC(=O)ON(C(C)=O)S(=O)(=O)c1c(Br)cccc1Br [Compound 22, N-(2,6-dibromobenzenesulfonyl)-N-acetyloxy-acetamide] | < 2 h |  | 71% | ~20 min |  | 
18 | CC(=O)ON(C(C)=O)S(=O)(=O)c1c(Cl)cccc1Cl [Compound 23, N-(2,6-dichlorobenzenesulfonyl)-N-acetyloxy-acetamide] | < 3 h |  | 56% | ~40 min | 56% | 57%
19 | CC(=O)ON(C(C)=O)S(=O)(=O)c1c(F)cccc1F [Compound 24, N-(2,6-difluorobenzenesulfonyl)-N-acetyloxy-acetamide] | < 3 h |  | 23% | ~30 min |  | 
20 | CC(=O)ON(C(C)=O)S(=O)(=O)c1ccccc1[N+](=O)[O-] [Compound 25, N-(2-nitrobenzenesulfonyl)-N-acetyloxy-acetamide] | <3 h |  | 13% |  |  | 
21 | CC(=O)ON(C(C)=O)S(=O)(=O)CCl [Compound 26, N-(chloromethylsulfonyl)-N- acetyloxy-acetamide] | <3 h |  | 13% |  |  | 
22 | CCOC(=O)N(OC(C)=O)S(=O)(=O)c1c(Cl)cccc1Cl [Compound 27] | <3 h |  | 57% |  |  | 
23 | CC(=O)ON(C(=O)c1ccccc1)S(=O)(=O)c1c(Cl)cccc1Cl [Compound 28, N-(2,6-dichlorobenzenesulfonyl)-N-acetyloxy-benzamide] | <3 h |  | 17% |  | 44% | 
24 | CC(=O)ON(C(=O)OCc1ccccc1)S(=O)(=O)c1c(Cl)cccc1Cl [Compound 29, N-(2,6-dichlorobenzenesulfonyl)-N-acetyloxy-benzyl-carbamate] | <3 h |  | 21% |  | 52% | 83%
25 | CC(=O)ON(C(=O)C(Cl)Cl)S(=O)(=O)c1c(Cl)cccc1Cl [Compound 30, N-(2,6-dichlorobenzenesulfonyl)-N-acetyloxy-dichloroacetamide] | <3 h |  | 3% |  | 8% | 
26 | CC(=O)ON(C(=O)C(C)(C)C)S(=O)(=O)c1cc(Cl)ccc1Cl [Compound 31, N-(2,5-dichlorobenzenesulfonyl)-N-acetyloxy-trimethylacetamide] | <20 h |  | 5% |  |  | 
27 | CC(=O)ON(C(=O)C(C)(C)C)S(=O)(=O)c1ccccc1[N+](=O)[O-] [Compound 32, N-(2-nitrobenzenesulfonyl)-N-acetyloxy-trimethylacetamide] | >20 h |  | 0% |  |  | 
28 | CC(=O)ON(C(=O)C(C)(C)C)S(=O)(=O)c1c(Cl)cccc1Cl [Compound 33, N-(2,6-dichlorobenzenesulfonyl)-N-acetyloxy-trimethylacetamide] | <20 h |  | 1% |  | 33% | 
29 | CC(=O)ON(C(=O)OC(C)(C)C)S(=O)(=O)c1ccccc1Br [Compound 36, N-(2-bromobenzenesulfonyl)-N-acetyloxy-tert-butyl-carbamate] | <2 h |  | 7% |  |  | 67%
30 | CC(=O)ON(C(=O)OC(C)(C)C)S(=O)(=O)c1c(Cl)cccc1Cl [Compound 37, N-(2,6-dichlorobenzenesulfonyl)-N-acetyloxy-tert-butyl-carbamate] | <3 h |  | 4% |  |  | 85%
31 | CC(=O)ON(C(=O)OC(C)(C)C)S(=O)(=O)c1c(Br)cccc1Br [Compound 38, N-(2,6-dibromobenzenesulfonyl)-N-acetyloxy-tert-butyl-carbamate] | <3 h |  | 3% |  | 37% | 73%
32 | CC(C)(C)OC(=O)N(OC(=O)c1ccc([N+](=O)[O-])cc1)S(=O)(=O)c1c(Cl)cccc1Cl [Compound 40] | <3 h |  | 0% |  |  | 
